We go through 2 compounds from ChEMBL document CHEMBL1949669, “Imidazopyridines as selective CYP3A4 inhibitors” (Bioorg Med Chem Lett, 2012).

A short description of series [1]: Solubility of the compound. The series is classed as physicochemical.
Series [2] in a line: Half life in human hepatic S9 fraction. The series is classed as ADME, subcellular, Liver.
A short description of series [3]: Half life in human liver microsomes. Format: ADME, Microsome.

Values after ≈ are worked out from the molar mass of the structure shown.

For `O=C(Nc1ccc(-c2ccccc2)cc1)Nc1ccc(-c2ccnc3[nH]cnc23)cc1`, the concentration in solution in series [1] (solubility) came to 2 µM (≈ 0.811 µg/mL).
In the case of `CCOC(=O)c1cccc(NC(=O)Nc2ccc(-c3ccnc4[nH]cnc34)cc2)c1`, the half-life in series [2] and in series [3] was 8 min each time.
